# Measured values taken from ChEMBL document CHEMBL1201862, “PubChem BioAssay data set” (2004).
# Activity calls are given as the source filed them.
# Key:
# [1] = molecular target: T1, Mannose-6-phosphate isomerase (Homo sapiens, UniProt P34949); experiment: human PMI inhibitors, high substrate, primary screen, biochemical, fluorescence intensity, high mannose 6-phosphate (AID 1220)
# T1 sequence (P34949 whole entry): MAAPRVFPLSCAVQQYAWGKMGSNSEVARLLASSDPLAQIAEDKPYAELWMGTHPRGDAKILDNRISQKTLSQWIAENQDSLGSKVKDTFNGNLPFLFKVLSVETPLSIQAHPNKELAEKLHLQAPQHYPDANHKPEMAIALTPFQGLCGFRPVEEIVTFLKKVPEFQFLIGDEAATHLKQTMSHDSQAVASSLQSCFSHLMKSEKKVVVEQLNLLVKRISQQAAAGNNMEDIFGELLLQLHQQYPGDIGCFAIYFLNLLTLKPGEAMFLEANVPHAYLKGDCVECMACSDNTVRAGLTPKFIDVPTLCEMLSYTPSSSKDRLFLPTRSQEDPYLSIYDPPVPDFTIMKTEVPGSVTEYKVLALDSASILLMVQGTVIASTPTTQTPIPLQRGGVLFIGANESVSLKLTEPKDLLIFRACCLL
# Cytochrome P450 2C19 [2] = molecular target: T2, Cytochrome P450 2C19 (Homo sapiens, UniProt P33261); experiment: Cytochrome panel assay with activity outcomes. Panel member name: p450-cyp2c19 Compounds with AC50 equal or less than 10 uM are considered active; format: functional
# [3] = Luminescent dose response cell-based high throughput screening assay for inhibitors of the Janus kinase 2 mutant JAK2V617F. [Related pubchem assays: 1446 (Primary screen.), 1521 (Confirmation assay.), 1486 (Counter screen.)]; format: functional
# [4] = molecular target: T3, Heat shock factor protein 1 (Mus musculus, UniProt P38532); experiment: inhibition of MG132-induced HSE-luciferase signal, confirmation, cell-based, NIH3T3, luminescence, dose retest (AID 2382); format: functional;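 also: NIH3T3 fibroblasts with HSF1-driven luciferase reporter stressed by proteasome inhibitor MG132; luminescence from HSF1-driven luciferase expression after 8 hours of MG132 stress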
# T3 sequence (P38532 whole entry): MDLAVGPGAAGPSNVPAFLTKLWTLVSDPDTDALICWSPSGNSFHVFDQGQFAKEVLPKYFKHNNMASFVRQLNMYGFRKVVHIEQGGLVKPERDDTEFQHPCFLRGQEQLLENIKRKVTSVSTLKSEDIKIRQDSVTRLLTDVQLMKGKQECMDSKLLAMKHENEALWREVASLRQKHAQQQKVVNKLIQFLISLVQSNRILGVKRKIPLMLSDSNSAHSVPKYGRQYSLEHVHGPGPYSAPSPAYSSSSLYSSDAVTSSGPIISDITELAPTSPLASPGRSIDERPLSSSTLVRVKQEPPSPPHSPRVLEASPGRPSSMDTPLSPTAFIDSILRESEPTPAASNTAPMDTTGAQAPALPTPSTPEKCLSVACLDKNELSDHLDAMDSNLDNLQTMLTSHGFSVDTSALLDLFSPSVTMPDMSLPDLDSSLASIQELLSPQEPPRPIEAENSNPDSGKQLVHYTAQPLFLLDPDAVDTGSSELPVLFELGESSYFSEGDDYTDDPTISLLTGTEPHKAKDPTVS
# Cytochrome P450 2C19 [5] = molecular target: T2, Cytochrome P450 2C19; experiment: qHTS Assay for Inhibitors and Substrates of Cytochrome P450 2C19. [Related pubchem assays: 410 ]; format: ADME; details: read-out: Potency
# Estrogen receptor beta [6] = molecular target: T4, Estrogen receptor beta (Homo sapiens, UniProt Q92731); experiment: ERβ–SRC-3 coactivator interaction inhibitors, confirmation, orthogonal assay, biochemical, ELISA, streptavidin-HRP readout (AID 1060)
# Estrogen receptor beta [7] = molecular target: T4, Estrogen receptor beta
# [8] = Vero cell cytotoxicity, dose response, cytotoxicity control for Vif-APOBEC3G degradation inhibitor project, Vero cells (AID 1117358); format: functional; details: Human immunodeficiency virus 1, Vero
# [9] = molecular target: T5, Glutathione-S-transferase (Schistosoma japonicum, UniProt Q26513); experiment: biotin-GST/anti-GST TR-FRET signal inhibitors, dose response, artefact control for Vif-APOBEC3G degradation inhibitor project, biochemical (AID 1117362); format: functional
# T5 sequence (Q26513 whole entry): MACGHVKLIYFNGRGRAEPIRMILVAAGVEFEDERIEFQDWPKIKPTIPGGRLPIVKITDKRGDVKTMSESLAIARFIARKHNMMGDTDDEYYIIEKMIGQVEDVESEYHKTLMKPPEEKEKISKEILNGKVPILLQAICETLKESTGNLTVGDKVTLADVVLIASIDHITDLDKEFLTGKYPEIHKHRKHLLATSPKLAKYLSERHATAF
# Protein RecA = molecular target: T6, Protein RecA (Mycobacterium tuberculosis, UniProt P9WHJ3); experiment: Fluorescence Cell-Free Homogeneous Dose Retest to Identify Inhibitors of RecA-Intein Splicing Activity. [Related pubchem assays (depositor defined):AID2097, AID2223, AID489010, AID492950]; format: functional
# T6 sequence (P9WHJ3 whole entry): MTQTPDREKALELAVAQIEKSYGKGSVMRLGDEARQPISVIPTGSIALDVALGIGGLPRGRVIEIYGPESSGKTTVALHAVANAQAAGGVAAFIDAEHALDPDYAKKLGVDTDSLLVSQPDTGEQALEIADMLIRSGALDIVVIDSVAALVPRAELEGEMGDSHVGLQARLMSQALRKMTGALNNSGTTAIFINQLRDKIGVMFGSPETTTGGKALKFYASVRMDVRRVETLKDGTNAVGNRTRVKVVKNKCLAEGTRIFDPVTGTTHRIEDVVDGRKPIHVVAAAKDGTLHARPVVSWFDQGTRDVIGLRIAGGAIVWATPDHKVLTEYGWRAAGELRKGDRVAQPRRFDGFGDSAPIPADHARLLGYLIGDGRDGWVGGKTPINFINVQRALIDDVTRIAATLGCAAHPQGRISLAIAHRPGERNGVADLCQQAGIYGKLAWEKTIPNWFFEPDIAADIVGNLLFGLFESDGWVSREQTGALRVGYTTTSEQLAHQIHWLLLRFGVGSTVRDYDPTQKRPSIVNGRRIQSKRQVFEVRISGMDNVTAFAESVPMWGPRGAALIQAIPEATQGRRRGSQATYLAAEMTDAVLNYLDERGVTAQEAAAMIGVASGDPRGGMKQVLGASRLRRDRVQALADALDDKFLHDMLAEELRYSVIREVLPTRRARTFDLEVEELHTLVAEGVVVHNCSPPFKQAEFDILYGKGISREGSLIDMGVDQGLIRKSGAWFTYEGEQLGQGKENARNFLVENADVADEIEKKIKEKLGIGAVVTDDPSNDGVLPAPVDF
# [10] = molecular target: T7, Replicative DNA helicase DnaB (Mycobacterium tuberculosis, UniProt P9WMR3); experiment: DnaB intein splicing inhibitors, dose response, biochemical, cell-free fluorescence (AID 449749); format: functional
# T7 sequence (P9WMR3 whole entry): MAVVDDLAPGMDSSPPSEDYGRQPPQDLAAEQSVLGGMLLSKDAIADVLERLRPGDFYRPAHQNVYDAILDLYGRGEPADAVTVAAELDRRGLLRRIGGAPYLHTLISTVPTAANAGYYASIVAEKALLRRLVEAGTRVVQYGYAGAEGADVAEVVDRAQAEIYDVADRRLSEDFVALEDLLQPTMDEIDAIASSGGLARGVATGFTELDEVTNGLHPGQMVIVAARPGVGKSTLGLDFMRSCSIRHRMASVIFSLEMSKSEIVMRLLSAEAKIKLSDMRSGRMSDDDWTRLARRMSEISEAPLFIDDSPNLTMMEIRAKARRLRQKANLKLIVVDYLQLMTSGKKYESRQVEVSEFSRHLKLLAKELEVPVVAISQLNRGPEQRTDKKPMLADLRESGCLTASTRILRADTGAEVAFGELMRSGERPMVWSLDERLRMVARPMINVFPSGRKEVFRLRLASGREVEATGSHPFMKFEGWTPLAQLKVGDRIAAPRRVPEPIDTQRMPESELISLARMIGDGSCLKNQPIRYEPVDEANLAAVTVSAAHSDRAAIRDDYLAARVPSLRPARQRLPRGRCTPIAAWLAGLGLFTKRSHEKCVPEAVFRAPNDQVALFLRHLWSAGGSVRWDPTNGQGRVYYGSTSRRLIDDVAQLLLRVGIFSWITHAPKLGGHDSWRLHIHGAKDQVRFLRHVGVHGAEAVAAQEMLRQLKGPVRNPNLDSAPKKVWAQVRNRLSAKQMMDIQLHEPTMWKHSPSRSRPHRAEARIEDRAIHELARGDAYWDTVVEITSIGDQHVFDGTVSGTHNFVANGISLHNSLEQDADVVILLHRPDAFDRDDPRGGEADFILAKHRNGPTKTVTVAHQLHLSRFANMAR
# A-375 [11] = experiment: A375 melanoma cell viability reduction, dose response, counter-screen for MITF modulator project, cherry-pick samples, set 2 (AID 540335); format: functional, cell-based; details: Homo sapiens
# H4 = experiment: Luminescence Cell-Based Dose Response HTS to Identify Activators of 5'UTR Stem-Loop Driven Prion Protein mRNA Translation in H4 Neuroglioblastoma Cells. [Related pubchem assays: 1829 (Project Summary), 1814 (Primary HTS)]; format: functional; details: Homo sapiens
# [12] = Luminescence Cell-Based Dose Confirmation to Identify Activators of 5'UTR Stem-Loop Driven Alpha-Synuclein mRNA Translation in H4 Neuroglioblastoma Cells. [Related pubchem assays: 1829 (Project Summary), 1814 (Primary HTS)]; format: functional
# [13] = Luminescence Cell-Based Dose Response HTS to Identify Activators of Luciferase Translation or Activity in H4 […] Cells. [Related pubchem assays: 1829 (Project Summary), 1814 (Primary HTS)]; format: functional
# [14] = Luminescence Cell-Based Dose Response to Identify Activators of 5'UTR Stem-Loop Driven Prion Protein mRNA Translation in H4-C Neuroglioblastoma Cells. [Related pubchem assays: 1829 (Project Summary), 1814 (Primary HTS)]; format: functional
# A-375 [15] = experiment: MITF: Counter assay: A375 proliferation Measured in Cell-Based System Using Plate Reader - 2084-03_Inhibitor_Dose_DryPowder_Activity. [Related pubchem assays (depositor defined):AID488944]; format: functional; details: Homo sapiens
# [16] = Luminescence Cell-Based Dose Response to Identify Activators of Luciferase Translation or Activity in H4-C Neuroglioblastoma Cells. [Related pubchem assays: 1829 (Project Summary), 1814 (Primary HTS)]; format: functional
# HeLa = experiment: HeLa cell cytotoxicity, dose response, cytotoxicity control for MITF activator project, CellTiter-Glo luminescence, cherry-pick samples (AID 540259); format: functional, cell-based; details: Homo sapiens
# T2 sequence (P33261 whole entry): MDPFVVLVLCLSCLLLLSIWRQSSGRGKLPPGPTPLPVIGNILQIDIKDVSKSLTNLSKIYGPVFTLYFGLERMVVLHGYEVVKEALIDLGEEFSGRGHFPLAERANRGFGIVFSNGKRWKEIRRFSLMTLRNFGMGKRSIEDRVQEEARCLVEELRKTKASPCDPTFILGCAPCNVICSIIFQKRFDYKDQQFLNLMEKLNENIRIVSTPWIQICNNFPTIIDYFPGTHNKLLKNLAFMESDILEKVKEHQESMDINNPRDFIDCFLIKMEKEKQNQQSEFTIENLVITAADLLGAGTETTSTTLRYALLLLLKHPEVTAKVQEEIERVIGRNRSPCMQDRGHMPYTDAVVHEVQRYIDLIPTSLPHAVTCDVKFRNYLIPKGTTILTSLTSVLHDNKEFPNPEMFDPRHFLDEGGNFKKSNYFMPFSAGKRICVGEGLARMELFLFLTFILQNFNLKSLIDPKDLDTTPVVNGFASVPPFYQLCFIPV
# T4 sequence (Q92731 whole entry): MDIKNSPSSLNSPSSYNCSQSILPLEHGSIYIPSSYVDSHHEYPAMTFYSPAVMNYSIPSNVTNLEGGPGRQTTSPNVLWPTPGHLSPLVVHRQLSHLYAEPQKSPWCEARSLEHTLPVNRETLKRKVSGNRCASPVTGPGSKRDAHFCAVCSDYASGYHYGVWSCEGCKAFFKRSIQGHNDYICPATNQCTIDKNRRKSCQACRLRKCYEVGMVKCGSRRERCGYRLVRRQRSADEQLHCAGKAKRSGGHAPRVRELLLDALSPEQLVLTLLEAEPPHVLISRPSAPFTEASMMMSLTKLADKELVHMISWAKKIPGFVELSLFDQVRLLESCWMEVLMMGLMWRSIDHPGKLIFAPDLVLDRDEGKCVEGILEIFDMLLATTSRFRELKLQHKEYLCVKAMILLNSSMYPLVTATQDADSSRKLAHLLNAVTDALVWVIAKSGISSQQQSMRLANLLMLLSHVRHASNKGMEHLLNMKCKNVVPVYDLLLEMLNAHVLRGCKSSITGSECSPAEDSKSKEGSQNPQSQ
smiles,measurement,setting,value
O=[N+]([O-])c1c(NCCO)cc(N2CCCCC2)c2nonc12,IC50,[1],> 50 µM (not active)
Nc1nc(N)c2nc(-c3ccccc3)c(N)nc2n1,AC50,Cytochrome P450 2C19 [2],inactive
same,IC50,[3],0.807 µM (active)
same,EC50,[4],> 195 µM (not active)
CCCCCCC(=O)Cc1cc(OC)c(OC)cc1C=C(C(=O)OCC)C(=O)OCC,AC50,Cytochrome P450 2C19 [5],3.16 µM (inconclusive)
N#Cc1ccsc1NC(=O)CSc1ncnc2ccccc12,IC50,Estrogen receptor beta [6],< 0.023 µM (not active)
same,IC50,Estrogen receptor beta [7],> 50 µM (not active)
CCN(CC)c1ccc2c(c1)CCCN2,CC50,[8],> 40 µM (active)
same,IC50,[9],48.6 µM (active)
same,EC50,Protein RecA,> 380 µM (inconclusive)
same,AC50,[10],> 120 µM (inactive)
COc1ccc(/C=N/N=C2/SCC(=O)N2Cc2ccccc2)cc1,AC50,A-375 [11],> 35 µM (active)
same,EC50,H4,> 120 µM (not active)
same,EC50,[12],0.581 µM (active)
same,EC50,[13],< 0.1 µM (active)
same,EC50,[14],0.361 µM (active)
same,AC50,A-375 [15],> 35 µM (active)
same,EC50,[16],0.335 µM (active)
same,AC50,HeLa,164 µM (active)
COc1cc([C@@H]2Oc3cc([C@H]4Oc5cc(O)cc(O)c5C(=O)[C@H]4O)ccc3O[C@H]2CO)ccc1O,AC50,Cytochrome P450 2C19 [5],15.8 µM (inconclusive)
